Measured values: patent publication US20140322161A1, “ANTI-IL-6 VACCINE COMPOSITION” (PEPTINOV SAS, priority 2011, published 2014)
Bridges are numbered along the chain shown (N, C = ends). BDB = bisdiazonium-benzidine, coupling agent to KLH

Experiments:
murine IL-6 = biological target: T1, murine IL-6 (Mus musculus, UniProt P08505); test: Murine IL-6 neutralization test on murine B9 hybridomas with purified IgGs from immunized rabbits; format: cell-based; conditions: purified IgGs from rabbits immunized with the peptide; B9 hybridoma proliferation, XTT
T1 sequence (P08505 25-211): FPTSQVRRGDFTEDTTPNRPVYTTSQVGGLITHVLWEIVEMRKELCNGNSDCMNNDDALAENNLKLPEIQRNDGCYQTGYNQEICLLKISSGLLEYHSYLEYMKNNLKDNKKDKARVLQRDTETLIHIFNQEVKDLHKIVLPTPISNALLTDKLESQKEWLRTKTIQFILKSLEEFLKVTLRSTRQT
Method: The neutralizing ability of purified IgGs based on serum from rabbits immunized with the peptides mP1, mP2, mP3, mP4, mP5 and mP6 respectively, was tested in a murine IL-6 neutralization test. This test is based on the fact that murine B9 hybridomas proliferate in a dose-dependent manner in response to murine IL-6 (Brakenhoff et al. (1987) J. Immunol. 139:4116-21).
Plating (D0): seed a flat-bottom 96-well plate, treated for cell culture with 5000 cells per well in 50 μL of neutralization medium. (RPMI 1640 without phenol red, 5% v/v Foetal Calf Serum (FCS), 2 mM L-Glutamine, 100 U/mL Penicillin/Streptomycin, […] of β-Mercaptoethanol)
In parallel a so-called “pre-incubation” plate is produced with the desired concentration of murine IL-6, samples and commercial anti-mIL-6 antibodies used as positive control, all in a final volume of 100 μL of neutralization medium.
The pre-incubation plate is left at 37° C. for 2 hours. 50 μL per well is then transferred to the corresponding wells of the plate containing the cells, then the latter is incubated with 5% CO2 at 37° C. for 96 hours.
Development (D4): Add 50 μL of a solution of XTT (for 2,3-bis-(2-methoxy-4-nitro-5-sulfophenyl)-2H-tetrazolium-5-carboxanilide)—0.5% electron coupling reagent to each well. Leave to incubate at 37° C. for 7 hours. Reading of the optical density on a spectrophotometer set at 450 nm.

C57BL/6 mice = test: Murine model of chronic colitis induced by DSS after vaccination; format: in vivo
Text: Chronic colitis induced by Dextran Sodium Sulfate (DSS) is a well-known model of chronic inflammatory disease reproducing the main characteristics of the human diseases (Alex et al. (2009) Inflamm. Bowel Dis. 15:341-352).
Briefly, groups of 6 C57BL/6 mice (Charles River Laboratories, L'Arbresle, France) were formed. The mice were immunized 4 times (once with CFA and three times with IFA) every 15 days with different vaccine preparations. The mice were respectively immunized with PBS (DSS/PBS group), 50 μg per mouse of KLH (DSS/KLH group), and 100 μg per mouse of peptide mP1, mP2, mP3, mP4, mP5 and mP6 coupled with KLH (DSS/mIL-6 peptide group). A control H2O group was also included. Four days after the first booster, colitis was induced by absorption of Dextran Sodium Sulfate (DSS) in water (2%) over 7 days followed by 7 days of water. Three DSS/water cycles were thus carried out, after which the mice received water until the end of the protocol. The clinical signs of the disease appear approximately on the fifth day after the start of treatment with DSS (D26 of the protocol). The development of the disease is measured from the start of the first DSS cycle up to the end of the protocol by a disease activity index (DAI) including weight loss, the presence of blood in the stools and the texture of the stools. The clinical scores are determined as follows: for the texture of the stools a score of 0 (hard stools) to 4 (diarrhoea), for the presence of blood in the stools a score of 0 (absence) to 4 (macroscopic blood), and weight loss a score of 0 (<1%) to 4 (>20%). Each mouse is thus assigned a clinical score with a maximum score of 12.
Then, on D67, the mice are killed by cervical dislocation. The histological sections from colon distal biopsies are scored blind, according to the severity of the inflammation (0: absence, 1: slight, 2: moderate, 3: severe), the extent of the inflammation (0: absence, 1: mucosal, 2: mucosal and sub-mucosal, 3: transmural), crypt damage (0: absence, 1: one-third damaged, 2: ⅔ damaged, 3: only the surface of the epithelium intact, 4: total destruction of the crypts and epithelium). Each mouse is thus assigned a histological score with a maximum score of 10.

mIL-6 = biological target: T2, mIL-6 (Mus musculus, UniProt P08505); test: ELISA of antibody production against mIL-6 in DBA/2 mice immunized with mP2; format: in vivo; conditions: 100 μg cyclized mP2 coupled to KLH, day 54 sera, FIG. 9
T2 sequence (P08505 25-211): T1 sequence (P08505 25-211)
Method: (§1) Briefly, three groups of DBA/2 mice (Janvier, France) immunized intramuscularly four times (once in complete Freund's adjuvant (CFA), and three times in incomplete Freund's adjuvant (IFA)) every 15 days with different vaccine preparations: • 8 mice were immunized with 100 μg of the above-described cyclized mP2 peptide coupled to KLH (mP2-Bleo group) and were injected subcutaneously in the back with bleomycin • 6 mice were immunized with 100 μg of mP2 (mP2-Nacl group) and were injected subcutaneously in the back with NaCl (Negative control group) • 8 mice were group immunized with 200 μg of KLH alone (KLH-Bleo group) and were injected subcutaneously in the back with bleomycin. (Positive control group)
(§2) At day 54, the mice were killed. Sera samples were collected and the antibody production against mIL-6 was quantified by ELISA. Furthermore, skin biopsies were performed to evaluate the OH-proline production, indicative of collagen production, and histological sections from the back were also performed to evaluate dermal thickness.

DBA/2 mice = test: Murine model of bleomycin-induced systemic sclerosis after vaccination; format: in vivo; conditions: for skin fibrosis (OH-proline content of skin biopsies): mP2-immunized, FIG. 10
Text: The murine model of bleomycin-induced systemic sclerosis is a well-known model of chronic inflammatory disease with main features being dermal thickness together with skin and pulmonary fibrosis due to excessive collagen production (Adamson & Bowden (1974) Am. J. Pathol. 77:185-197)
as §1
The inventors also used an additional control group composed of mice injected intraperitoneally with 100 μL (1 mg/mouse) of murine monoclonal anti IL-6 receptor antibody once a week (n=6).
The subcutaneous injections of 100 μL of bleomycin (0.5 mg/mL) were performed three days after the third boost and then every other day during three weeks in order to induce systemic sclerosis.
as §2
The collagen content was measured in the skin biopsy from each mouse by assaying hydroxyproline (OH-proline) content. OH-proline represents about 13% of collagen amino acids and is measured to evaluate collagen production. […] The absorbance is read at 560 nm.
Dermal thickness from histological sections was then measured in a blind way by two independent experts.

hIL-6 = hIL-6 (Homo sapiens, UniProt P05231); test: ELISA cross-reactivity of sera from OF1 mice immunized with mIL-6-derived peptides, plates covered with human IL-6; format: in vivo; conditions: D54 sera diluted 1/500, plates covered with human IL-6
Text: Six peptides derived from murine IL-6 were chemically synthesized and coupled to a carrier protein, KLH (Keyhole Limpet Hemocyanin), five using the coupling agent bisdiazonium-benzidine (BDB) and one with glutaraldehyde. These peptides were then cyclized by the formation of disulfide bonds between cysteines (added or already present).
For each peptide, Oncins France 1 mice (OF1, Charles River Laboratories, L'Arbresle, France) free from specific pathogenic organisms were immunized by intra-muscular route with 100 μg of peptides derived from murine IL-6 mP1, mP2, mP3, mP4, mP5, and mP6 (see Table 1) in complete Freund's adjuvant (CFA) at the start of the experiment (D0) (n=4 per peptide).
Incomplete Freund's adjuvant (IFA) boosters are then given every 15 days, on D15, D30 and D45. The sera from mice on D54 are tested by ELISA with a 1/500th dilution of the serums on plates covered with murine IL-6 or human IL-6 in order to evaluate their cross-reactivity.

Chain of hIL-6 (P05231 30-212): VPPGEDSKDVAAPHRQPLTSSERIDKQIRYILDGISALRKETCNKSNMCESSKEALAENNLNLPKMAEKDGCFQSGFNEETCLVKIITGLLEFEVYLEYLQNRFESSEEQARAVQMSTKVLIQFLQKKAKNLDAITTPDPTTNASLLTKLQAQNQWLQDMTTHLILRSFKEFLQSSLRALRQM

Substance: Acetyl+C76MNNDDALAENNLKLPE92C-Y-BDB (Ac-CMNNDDALAENNLKLPECY-{BDB}; disulfide 1-18 (inferred)) [mP2, peptide derived from mIL-6 region 76-92]
- neutralization of the biological activity of murine IL-6 (murine IL-6): neutralize the biological activity of murine IL-6 in a dose-dependent manner
- histological colitis score (C57BL/6 mice; D67 colon distal biopsies, compared with control mice treated with PBS or KLH alone, FIG. 3): significantly reduced histological score
- disease activity index (DAI) (C57BL/6 mice; DSS-treated C57BL/6 mice, 100 μg peptide coupled with KLH, compared with the control groups, FIG. 2): significantly reduced disease activity index
- reduction of the length of the colon (C57BL/6 mice; DSS-treated C57BL/6 mice, compared with control mice, FIG. 4): significantly less severe reduction of the colon
- development of antibodies against mIL-6 (ELISA) (mIL-6): developed antibodies against mIL-6
- dermal thickening (histological sections) (DBA/2 mice; bleomycin model, versus mice immunized with KLH only, identical with anti mIL-6 receptor group, FIG. 11): lower dermal thickening
- skin fibrosis (OH-proline content of skin biopsies) (DBA/2 mice; injected subcutaneously with NaCl (negative control group)): did not develop skin fibrosis
- skin fibrosis (OH-proline content of skin biopsies) (DBA/2 mice; injected subcutaneously with bleomycin, same efficacy as anti IL-6 receptor antibody group): protected from the development of fibrosis
- cross-reactivity with the human cytokine (ELISA) (hIL-6): apart from the antibodies directed against the peptide mP2
